This is an account of results in article PMC9291951 (British Journal of Pharmacology, 2020).

As a reminder, the IC50 is the concentration that inhibits the measured activity by half.

Experiment [1] addresses human TRPV4 wild-type (hTRPV4-WT) (Homo sapiens, UniProt Q9HBA0). The experiment is described as follows: Ca2+ imaging. The format is cell-based. The following applies: HeLa cells.
In experiment [2] the target is hTRPV4-D546A (Homo sapiens, UniProt Q9HBA0, D546A). The experiment is described as follows: Ca2+ imaging. It is filed as cell-based. The following applies: for Blocking effect in mutant versus wild-type channel: D546A.
hTRPV4-D546A, sequence (Q9HBA0 whole entry D546A): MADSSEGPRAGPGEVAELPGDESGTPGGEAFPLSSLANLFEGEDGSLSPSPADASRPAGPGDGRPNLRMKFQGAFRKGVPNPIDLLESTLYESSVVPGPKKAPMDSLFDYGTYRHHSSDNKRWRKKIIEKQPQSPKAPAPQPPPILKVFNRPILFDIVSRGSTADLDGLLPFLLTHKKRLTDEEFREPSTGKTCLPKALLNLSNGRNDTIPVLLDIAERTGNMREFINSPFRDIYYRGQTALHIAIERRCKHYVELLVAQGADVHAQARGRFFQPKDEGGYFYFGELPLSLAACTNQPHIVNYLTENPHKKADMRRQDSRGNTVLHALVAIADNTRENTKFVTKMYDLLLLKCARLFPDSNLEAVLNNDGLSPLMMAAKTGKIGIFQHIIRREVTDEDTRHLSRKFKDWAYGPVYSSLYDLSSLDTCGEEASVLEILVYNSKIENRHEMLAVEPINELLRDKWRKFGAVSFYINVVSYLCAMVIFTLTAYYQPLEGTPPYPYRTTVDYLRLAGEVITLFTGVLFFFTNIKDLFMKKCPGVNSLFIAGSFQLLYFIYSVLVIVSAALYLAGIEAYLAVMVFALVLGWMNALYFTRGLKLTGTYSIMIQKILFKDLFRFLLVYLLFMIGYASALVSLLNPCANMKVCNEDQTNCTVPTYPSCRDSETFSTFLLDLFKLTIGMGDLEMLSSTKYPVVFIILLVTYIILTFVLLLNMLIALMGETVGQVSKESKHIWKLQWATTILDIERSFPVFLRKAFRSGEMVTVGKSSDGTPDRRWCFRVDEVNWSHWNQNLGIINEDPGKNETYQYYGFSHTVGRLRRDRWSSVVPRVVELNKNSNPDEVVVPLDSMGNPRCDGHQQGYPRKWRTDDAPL
Experiment [3] deals with hTRPV4-Y591H (Homo sapiens, UniProt Q9HBA0, Y591H). The experiment is described as follows: Ca2+ imaging. It is filed as cell-based.
hTRPV4-Y591H, sequence (Q9HBA0 whole entry Y591H): as the sequence (Q9HBA0 whole entry D546A) above, with A546D, Y591H counted along it
Experiment [4] deals with hTRPV4-Y591A (Homo sapiens, UniProt Q9HBA0, Y591A). Briefly: Ca2+ imaging. It is filed as cell-based.
hTRPV4-Y591A, sequence (Q9HBA0 whole entry Y591A): as the sequence (Q9HBA0 whole entry D546A) above, with A546D, Y591A counted along it
The test system of experiment [5] is TRPV4. The following applies: read-out: IC50 (antagonist); ref Cheung et al., 2017; cited from earlier work.

human TRPV4 wild-type (hTRPV4-WT), sequence (Q9HBA0 whole entry): as the sequence (Q9HBA0 whole entry D546A) above, with A546D counted along it

Consider `CC(C)C[C@H](NC(=O)c1cc2ccccc2s1)C(=O)N1CCN(C(=O)[C@H](CO)NS(=O)(=O)c2ccc(Cl)cc2Cl)CC1` [GSK1016790A, N‐((1S)‐1‐{[4‐((2S)‐2‐{[(2,4‐Dichlorophenyl)sulfonyl]amino}‐3‐hydroxypropanoyl)‐1‐piperazinyl]carbonyl}‐3‐methylbutyl)‐1‐benzothiophene‐2‐carboxamide], for which the “Channel activation by agonist” value is reported as “activated” in experiment [1] and “activated” in experiment [2] (TRPV4-D546A, HeLa cells, Ca2+ imaging). The “Channel response to agonist” value is reported as “Neither hTRPV4‐Y591A nor hTRPV4‐Y591H responded” in experiment [3] (hTRPV4-Y591H, 1-nM GSK1016790A) and “Neither hTRPV4‐Y591A nor hTRPV4‐Y591H responded” in experiment [4] (hTRPV4-Y591A, 1-nM GSK1016790A).

As to `CC(C)(O)c1cnc(N2C[C@@]3(CCC[C@](C)(Cn4cnc5ccc(C#N)cc54)C3)OC2=O)cn1` [GSK2798745], the IC50 in experiment [5] was 16 nM.

On to `N.N.N.N.N.N.N.N.N.N.N.N.N.N.[Cl-].[Cl-].[Cl-].[Cl-].[Cl-].[Cl-].[O-2].[O-2].[Ru+3].[Ru+3].[Ru+4]` [ruthenium red], for which the “Blocking effect in mutant versus wild-type channel” value in experiment [2] (1-nM GSK1016790A, ruthenium red 10 nM to 10 μM) is “not affected”; in experiment [2] (30% hypotonic solution, 1-μM ruthenium red), “not affected”; in experiment [3] (Y591H, 30% hypotonic solution, 1-μM ruthenium red) it was “not affected”; in experiment [4] (Y591A, 30% hypotonic solution, 1-μM ruthenium red), “not affected”.
